From BindingDB's records for doi:10.1016/j.bmcl.2009.08.022 (Roche Palo Alto, 2009)

The compounds below were run against Genome polyprotein (Hepatitis C virus genotype 1b (isolate Con1), UniProt Q9WMX2) (assay: Inhibition of […] con1 NS5B polymerase assessed as [3H]UTP incorporation into acid insoluble RNA product).
Sequence of Genome polyprotein (Q9WMX2 2420-3010 limits assumed): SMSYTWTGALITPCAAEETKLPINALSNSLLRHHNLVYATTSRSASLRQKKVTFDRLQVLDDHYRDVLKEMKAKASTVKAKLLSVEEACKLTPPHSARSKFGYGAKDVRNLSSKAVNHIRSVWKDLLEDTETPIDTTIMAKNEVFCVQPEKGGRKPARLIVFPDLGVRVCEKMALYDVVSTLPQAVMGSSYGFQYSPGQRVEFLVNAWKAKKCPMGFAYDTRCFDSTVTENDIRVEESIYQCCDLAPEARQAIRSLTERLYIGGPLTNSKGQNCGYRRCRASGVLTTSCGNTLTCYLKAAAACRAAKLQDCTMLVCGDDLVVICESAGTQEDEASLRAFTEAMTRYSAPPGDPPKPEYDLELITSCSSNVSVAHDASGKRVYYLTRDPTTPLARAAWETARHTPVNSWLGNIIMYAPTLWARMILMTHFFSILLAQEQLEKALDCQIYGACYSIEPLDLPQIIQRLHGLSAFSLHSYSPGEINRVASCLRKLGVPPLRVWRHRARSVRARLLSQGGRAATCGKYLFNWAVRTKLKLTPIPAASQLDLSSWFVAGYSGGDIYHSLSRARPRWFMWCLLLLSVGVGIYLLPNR

| IC50 [nM] | SMILES |
| --- | --- |
| 5 | Cc1cc(CN2C(=O)C(=C3NS(=O)(=O)c4c(CN(C)S(C)(=O)=O)cccc43)C(=O)[C@@H]2C(C)(C)C)ccc1F [N-{3-[(S)-5-tert-Butyl-1-(4-fluoro-3-methyl-benzyl)-4-hydroxy-2-oxo-2,5-dihydro-1H-pyrrol-3-yl]-1,1-dioxo-1H-1lambda*6*-benzo[d]isothiazol-7-ylmethyl}-N-methyl-methanesulfonamide] |
| 4 | Cc1cc(CN2C(=O)C(=C3NS(=O)(=O)c4c(CNS(C)(=O)=O)cccc43)C(=O)[C@@H]2C(C)(C)C)ccc1F [N-{3-[(S)-5-tert-Butyl-1-(4-fluoro-3-methyl-benzyl)-4-hydroxy-2-oxo-2,5-dihydro-1H-pyrrol-3-yl]-1,1-dioxo-1H-1lambda*6*-benzo[d]isothiazol-7-ylmethyl}-methanesulfonamide] |
| 5 | CC(C)(C)[C@H]1C(=O)C(=C2NS(=O)(=O)c3c(NS(C)(=O)=O)cccc32)C(=O)N1Cc1ccc(F)cc1 [N-{3-[(S)-5-tert-Butyl-1-(4-fluoro-benzyl)-4-hydroxy-2-oxo-2,5-dihydro-1H-pyrrol-3-yl]-1,1-dioxo-1H-1lambda*6*-benzo[d]isothiazol-7-yl}-methanesulfonamide] |

Continued, compound first:

| SMILES | IC50 [nM] |
| --- | --- |
| CC(C)(C)[C@H]1C(=O)C(=C2NS(=O)(=O)c3c(CCS(C)(=O)=O)cccc32)C(=O)N1Cc1ccc(F)cc1 [(S)-5-tert-Butyl-1-(4-fluoro-benzyl)-4-hydroxy-3-[7-(2-methanesulfonyl-ethyl)-1,1-dioxo-1H-1lambda*6*-benzo[d]isothiazol-3-yl]-1,5-dihydro-pyrrol-2-one] | 4 |
| Cc1cc(CN2C(=O)C(C3NS(=O)(=O)c4c(C=NS(N)(=O)=O)cccc43)C(=O)[C@@H]2C(C)(C)C)ccc1F (stereo partly drawn) [N-({3-[(5S)-5-tert-butyl-1-[(4-fluoro-3-methylphenyl)methyl]-4-hydroxy-2-oxo-2,5-dihydro-1H-pyrrol-3-yl]-1,1-dioxo-{6},2-benzothiazol-7-yl}methyl)aminosulfonamide] | 3 |
| CC(C)(C)[C@H]1C(=O)C(C2NS(=O)(=O)c3c(C=NS(N)(=O)=O)cccc32)C(=O)N1Cc1ccc(F)cc1 (stereo partly drawn) [N-({3-[(5S)-5-tert-butyl-1-[(4-fluorophenyl)methyl]-4-hydroxy-2-oxo-2,5-dihydro-1H-pyrrol-3-yl]-1,1-dioxo-{6},2-benzothiazol-7-yl}methyl)aminosulfonamide] | 3 |
